Test results reported in patent US8987249B2, “Substituted 2-Aza-bicyclo[2.2.1]heptane-3-carboxylic acid (benzyl-cyano-methyl)-amides inhibitors of Cathepsin C” (Boehringer Ingelheim International GmbH, priority 2013, dated 2015).

Columns and labels:
[1] = Determination of metabolic stability with human liver microsomes; conditions: pooled human liver microsomes; for half-life at 1 μM: human, pH 7.6
[2] = biological target: recombinant human Cathepsin K (Homo sapiens (Human), UniProt P43235); assay: Inhibition of human Cathepsin K; type: biochemical; conditions: substrate Z-Gly-Pro-Arg-AMC
How it was run: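 Proenzyme activated in pH 3.5 sodium acetate for 30 min at room temperature. Enzyme (2 ng/μL final) preincubated 10 min with compound (0.1 nM–100 μM, 1% DMSO) in pH 5.5 acetate/EDTA/L-cysteine buffer, then reacted 60 min at room temperature with Z-Gly-Pro-Arg-AMC. Stopped with 1 μM E64; fluorescence Ex 360/Em 460 nm; IC50 from background-subtracted percent of vehicle control.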

[3] = biological target: recombinant human DPPI (Cathepsin C) (Homo sapiens (Human), UniProt P53634); assay: Inhibition of human DPPI (Cathepsin C); type: biochemical; conditions: substrate Gly-Arg-AMC
How it was run: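 Recombinant human DPPI in MES buffer pH 6.0 (5 mM DTT, 0.1% BSA); fluorogenic substrate at 50 μM final, 30 min at room temperature, stopped with 1 μM Gly-Phe-DMK. Background-subtracted fluorescence expressed as percent of vehicle control; IC50 derived.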

recombinant human Cathepsin K, sequence (P43235 115-329): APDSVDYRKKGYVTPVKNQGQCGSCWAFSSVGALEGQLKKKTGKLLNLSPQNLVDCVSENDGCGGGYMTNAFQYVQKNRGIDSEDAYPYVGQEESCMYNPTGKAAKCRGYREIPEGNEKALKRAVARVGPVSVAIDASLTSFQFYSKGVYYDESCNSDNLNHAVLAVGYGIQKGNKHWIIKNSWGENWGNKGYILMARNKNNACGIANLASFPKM
recombinant human DPPI (Cathepsin C), sequence (P53634 231-394): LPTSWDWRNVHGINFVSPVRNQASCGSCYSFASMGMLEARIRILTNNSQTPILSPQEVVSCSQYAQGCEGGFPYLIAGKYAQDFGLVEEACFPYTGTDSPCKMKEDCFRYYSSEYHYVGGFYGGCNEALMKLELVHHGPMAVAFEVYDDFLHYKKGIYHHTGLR
recombinant human DPPI (Cathepsin C), sequence (P53634 395-463): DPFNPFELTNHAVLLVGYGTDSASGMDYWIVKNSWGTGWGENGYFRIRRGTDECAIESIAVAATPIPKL
recombinant human DPPI (Cathepsin C), sequence (P53634 25-134): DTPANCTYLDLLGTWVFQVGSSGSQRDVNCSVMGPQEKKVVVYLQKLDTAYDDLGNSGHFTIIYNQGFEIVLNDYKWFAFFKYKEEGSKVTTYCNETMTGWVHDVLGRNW

Row | Structure (SMILES) | half-life at 1 μM [1] [h] | IC50 [2] [nM] | IC50 [3] [nM] | In vitro stability in human liver microsome incubations t½ ([1]; 1 μM test compound, 37° C., NADPH) [h]
1 | N#C[C@H](Cc1ccc2c(c1)c(=O)[nH]c1cc(C(F)(F)F)ccc12)NC(=O)[C@H]1N[C@@H]2CC[C@H]1C2 [Example 301] | 1.67 | 19500 | 4.5 | 
2 | Cn1c(=O)c2cc(CC(C#N)NC(=O)[C@H]3N[C@@H]4CC[C@H]3C4)ccc2c2ccc(C#N)cc21 (stereo partly drawn) [Example 303] | > 2.17 | 22200 | 5 | 
3 | N#CC(Cc1ccc2c(cnc3cc(F)ccc32)c1)NC(=O)[C@H]1N[C@@H]2CC[C@H]1C2 (stereo partly drawn) [Example 315, (1S,2S,4R)—N-[1-cyano-2-(3-fluorophenanthridin-8-yl)ethyl]-3-azabicyclo[2.2.1]heptane-2-carboxamide] | 1.53 | > 30000 | 13.5 | 
4 | CN1CCC(Oc2ccc(C[C@@H](C#N)NC(=O)[C@H]3N[C@@H]4CC[C@H]3C4)c(F)c2)CC1 [Example 319, (1S,2S,4R)—N-[(1S)-1-cyano-2-[2-fluoro-4-[(1-methyl-4-piperidyl)oxy]phenyl]ethyl]-3-azabicyclo[2.2.1]heptane-2-carboxamide] | > 2.17 | 4500 | 17.5 | 
5 | N#C[C@H](Cc1cc2c(=O)[nH]c3ccccc3c2cc1F)NC(=O)[C@H]1N[C@@H]2CC[C@H]1C2 [Example 322] | > 2.17 | 1100 | 0.8 | 
6 | N#C[C@H](Cc1cc2c(=O)[nH]c3cc(F)ccc3c2cc1F)NC(=O)[C@H]1N[C@@H]2CC[C@H]1C2 [Example 323] | > 2.17 | 900 | 0.8 | 
7 | N#C[C@H](Cc1cc2c(=O)[nH]c3c(F)c(F)ccc3c2cc1F)NC(=O)[C@H]1N[C@@H]2CC[C@H]1C2 [Example 324] | > 2.17 | 800 | 1 | 
8 | N#Cc1cc(F)c2[nH]c(=O)c3cc(C[C@@H](C#N)NC(=O)[C@H]4N[C@@H]5CC[C@H]4C5)c(F)cc3c2c1 [Example 325] | > 2.17 | 2300 | 1.3 | 
9 | CN1CC2(C1)CN(c1ccc(C[C@@H](C#N)NC(=O)[C@H]3N[C@@H]4CC[C@H]3C4)c(F)c1)C2 [Example 330] | > 2.17 | 6600 | 7.8 | 
10 | N#C[C@H](Cc1ccc(-c2ccc(=O)n(CC(F)F)c2)cc1F)NC(=O)[C@H]1N[C@@H]2CC[C@H]1C2 [Example 343] | > 2.17 | 5300 | 4.5 | 
11 | CN(C)C1CCCN(c2ccc(C[C@@H](C#N)NC(=O)[C@H]3N[C@@H]4CC[C@H]3C4)c(F)c2)C1 (stereo partly drawn) [Example 344, (1S,2S,4R)—N-[(1S)-1-cyano-2-[4-[3-(dimethylamino)-1-piperidyl]-2-fluoro-phenyl]ethyl]-3-azabicyclo[2.2.1]heptane-2-carboxamide] | 1.83 | 6200 | 10 | 
12 | CN(C)CC1CCCN(c2ccc(C[C@@H](C#N)NC(=O)[C@H]3N[C@@H]4CC[C@H]3C4)c(F)c2)C1 (stereo partly drawn) [Example 345] | > 2.17 | 9200 | 18.4 | 
13 | CN1CCC(N2C(=O)Cc3ccc(-c4ccc(C[C@@H](C#N)NC(=O)[C@H]5N[C@@H]6CC[C@H]5C6)c(F)c4)cc32)CC1 [Example 346] | > 2.17 | 4000 | 1 | 
14 | N#C[C@H](Cc1ccc(N2CC3CCN(C4CCOC4)C3C2)cc1F)NC(=O)[C@H]1N[C@@H]2CC[C@H]1C2 (stereo partly drawn) [Example 348] |  | 4300 | 17.6 | 2.17
15 | CN1CCC2CN(c3ccc(C[C@@H](C#N)NC(=O)[C@H]4N[C@@H]5CC[C@H]4C5)c(F)c3)CC21 (stereo partly drawn) [Example 349] | > 2.17 | 5000 | 20.6 | 
16 | CN1CCC2(CC1)CC(c1ccc(C[C@@H](C#N)NC(=O)[C@H]3N[C@@H]4CC[C@H]3C4)c(F)c1)C2 [Example 358] | > 2.17 | 9600 | 22 | 
17 | CN1CCC2(C=C(c3ccc(C[C@@H](C#N)NC(=O)[C@H]4N[C@@H]5CC[C@H]4C5)c(F)c3)C2)CC1 [Example 359] | > 2.17 | 6300 | 8.8 | 
